“And” between values parts separate entries of the source, which are not always exact repeats. Equal entries are not always repeated. The source made the active and inactive calls.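 How the source made its calls: active means compounds giving half or more protection of infected cells from virus-caused growth loss, again on retest; inactive means the rest.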
Test system: CEM cells HIV-1 protection, formazan growth assay
Test: NCI AIDS Antiviral Assay
Settings: for IC50: measured here: growth of uninfected CEM cells
Method in brief: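 Protection of CEM cells against HIV-1 was scored from cell growth (soluble formazan) across five concentrations, with parallel uninfected cells. Lack of protection may reflect toxicity.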

Row | Structure (SMILES) | EC50 | IC50 [µM] | outcome
1 | c1ccc(-c2ccnc3c2ccc2c(-c4ccccc4)ccnc23)cc1 | > 21.9 µM | 11.5 | 
2 | O=[N+]([O-])c1ccc(CCc2ccc([N+](=O)[O-])cc2S(=O)(=O)O)c(S(=O)(=O)O)c1 |  |  | inactive
3 | N#Cc1c(N)c2c(c(-c3ccccc3)c1-c1ccccc1)C(=O)N(N)C2=O | > 200 µM | 117 | 
4 | c1cc2nnc1SCCCSc1ccc(nn1)SCCCSc1ccc(nn1)SCCCS2 | > 100 µM | > 100 | 
5 | COc1ccc(CC2COC(=O)[C@@H]2Cc2ccc(O)cc2)cc1OC (some centres undefined) | > 200 µM | 44.7 | 
6 | C#CCC(O)c1ccccc1C(O)CC#C (centres undefined) |  |  | inactive
7 | Cc1nc2ccc(S(=O)(=O)Nc3ccccc3)cc2c(=O)n1NC(=O)CNc1ccccc1 | > 200 µM | 186 | 
8 | N#Cc1nc(CCC(C(=O)O)N2C(=O)c3ccccc3C2=O)oc1N (centres undefined) | > 100 µM | > 100 | 
9 | COC1(OC)C2(Cl)C(Cl)=C(Cl)C1(Cl)C1C=CC=CC12 (centres undefined) |  |  | inactive
10 | O=C(O)C1C(c2c3ccc(=O)c(O)c-3oc3c(O)c(O)ccc23)C2(Cl)C(Cl)=C(Cl)C1(Cl)C2(Cl)Cl (centres undefined) | > 151 µM | > 151 | 
11 | CCOC(=O)c1cc2c(OC(C)=O)ccc(OC(C)=O)c2s1 | > 2 µM | 0.0794 | 
12 | O=c1c2cc([N+](=O)[O-])cnc2sn1-c1ccc(Br)cc1 | > 200 µM | 63.1 | 
13 | N#CC1=C(O)NC(O)=C(C#N)C1c1ccc(C2C(C#N)=C(O)NC(O)=C2C#N)cc1 | > 631 µM | 35.5 | 
14 | COC1OC2COC(C)(C)OC2C2OC(C)(C)OC12 (centres undefined) | > 200 µM | 182 | 
15 | CC(C)CCC[C@@H](C)C1CCC2[C@@H]3CC=C4C[C@@H](OP(=O)(O)O)CC[C@]4(C)C3CC[C@@]21C (some centres undefined) | > 28.2 µM | > 28.2 | 
16 | COc1ccc(CC2Cc3ccccc3CCN2)cc1OC (centres undefined) |  |  | inactive
17 | O=C(Nc1ccn(CCOC(=O)c2ccccc2)c(=O)n1)c1ccccc1 | > 186 µM | > 186 | 
18 | CCOC(=O)c1[nH]n(-c2ccccc2)c(=O)c1/C=N/C(=S)NCCc1ccc(OC)c(OC)c1 | > 200 µM | 51.3 | 
19 | O=C(Nc1ccccc1)[C@H](O)[C@@H](O)C(=O)Nc1ccccc1 | > 60.3 µM | 49 | 
20 | NNC(=S)N/N=C(\CCCC(=O)NCCc1ccccc1)CC(=O)c1ccccc1 | > 219 µM | > 219 | 
21 | Clc1ccc(OCc2nnc(CCCCCCCCc3nnc(COc4ccc(Cl)cc4)o3)o2)cc1 | > 200 µM | 89.1 | 

Row | Structure (SMILES) | EC50 | IC50 [µM] | outcome
22 | CC(=O)Oc1c(C)c2c(c3ncccc13)OC(C)C2 (centres undefined) | > 200 µM | 3.16 | 
23 | CC(C)(C)NC(=O)C12C3C4C1C1C2C3C41I (centres undefined) | > 100 µM | > 100 | 
24 | CCOc1ccccc1NC(=O)C(=O)C(c1ccccc1)S(=O)(=O)Cc1ccccc1 (centres undefined) | > 200 µM | 120 | 
25 | CCN(CC)CCS(=O)c1c2cc(OC)ccc2nc2ccc(OC)cc12 (centres undefined) | > 200 µM | 3.39 | 
26 | COC(=O)C1=C2Nc3ccccc3[C@@]23CCN(Cc2ccccc2)C3C[C@H]1C1=CC(OC)OC1OC (some centres undefined) | > 25.7 µM | 15.1 | 
27 | CC1(C)Oc2ccc3c(=O)c(-c4ccccc4)c(-c4ccccc4)oc3c2C1C(=O)O (centres undefined) | > 200 µM | 72.4 | 
28 | Cc1ccc2ccc3ccc(C)nc3c2n1.Cc1ccc2ccc3ccc(C)nc3c2n1.O=C1OC(C(O)C[O-])C(O)=C1O.[Cu+] | > 12.6 µM | 0.0871 | 
29 | Cc1cn(C2CC(N=[N+]=[N-])C(COC(=O)C3OC(C)(C)O[C@@]34CC[C@H]3[C@@H]5CCC6=CC(=O)C=C[C@]6(C)[C@H]5[C@@H](O)C[C@@]34C)O2)c(=O)[nH]c1=O (some centres undefined) | 0.0589 µM | 11.5 | 
30 | CC1(C)C(C#N)C1C1=C(N2CCOCC2)[C@]2(C)C(OC(=O)c3ccccc3)CC[C@@H]2C1 (some centres undefined) | > 50.1 µM | 38.9 | 
31 | CCOC(=O)C1=CC(C)(C(=O)OCC)Nc2c(nc(OC)n(C)c2=O)N1 (centres undefined) | > 200 µM | > 200 | 
32 | C[Si](C)(C)C1=C([Si](C)(C)C)C(Cl)(Cl)C1=O | > 20 µM | 3.98 | 
33 | O=C(OC1CCC2OOC1O2)c1ccc([N+](=O)[O-])cc1 (centres undefined) |  |  | inactive
34 | COC(=O)Cc1c([C@H]2[C@H](CC(=O)OC)c3ccccc3N2S(=O)(=O)c2ccc(C)cc2)[nH]c2ccccc12 | > 102 µM | 11.5 | 
35 | O=C(NCCN1CCCCC1)c1ccc(I)cc1 | > 200 µM | > 200 | 
36 | CSC1=NN(c2ccccc2)C(=O)C1=C(SC)SC | > 200 µM | 25.1 | 
37 | [O-]/[N+](=N/c1ncc(-c2ccccc2)cn1)c1ncc(-c2ccccc2)cn1 | > 200 µM | 31.6 | 
38 | O=C1c2ccccc2C(=O)c2c(O)ccc(O)c21 | > 77.6 µM | > 77.6 | 
39 | O=c1ccc2nc3cc(Br)ccc3sc-2c1 | > 24.5 µM | > 24.5 | 
40 | Cc1nn2c(=O)c3c([N+](=O)[O-])c(C)nn3c(=O)c2c1[N+](=O)[O-] | > 562 µM | > 562 | 
41 | O=C1c2cc3c(cc2CC1Br)CCC3 (centres undefined) | > 20 µM | 0.38 | 
42 | COc1ccc(C(OCC2OC3(COC(c4ccccc4)(c4ccc(OC)cc4)c4ccc(OC)cc4)C(Oc4nc(=O)ccn43)C2O)(c2ccccc2)c2ccc(OC)cc2)cc1 (centres undefined) | > 100 µM | > 100 | 

Row | Structure (SMILES) | EC50 | IC50 [µM] | outcome
43 | O=C([CH-]C(=O)c1ccccc1)c1ccccc1.[CH-]1CCCCC1.[CH-]1CCCCC1.[CH-]1CCCCC1.[Sn+4] | > 60.3 µM |  | 
44 | O=C1C2c3[nH]c4ccccc4c3C3CCSCC3C2C(=O)N1c1ccccc1 (centres undefined) |  |  | inactive
45 | CC1CNc2cccc3[nH]c(=S)n(c23)C1 (centres undefined) | > 200 µM | > 200 | 
46 | CC(=O)OCC1OC(n2c(N)c(C#N)c(C)c(C#N)c2=S)C(OC(C)=O)C(OC(C)=O)C1OC(C)=O (centres undefined) | 145 µM and 162 µM | > 200 | 
47 | CCCCOC(=O)NC(Nc1ccc(S(=O)(=O)Nc2ccc(OC)nn2)cc1)(C(F)(F)F)C(F)(F)F | > 200 µM | > 200 | 
48 | COC1/C=C/OC2(C)Oc3c(C)c(O)c4c(O)c(c(C=NOC(c5ccccc5)c5ccccc5)c(O)c4c3C2=O)NC(=O)/C(C)=C/C=C/C(C)C(O)C(C)C(O)C(C)C(OC(C)=O)C1C (centres undefined) | > 200 µM | 4.79 | 
49 | CN(C)C(=S)N/N=C\C(=N/NC(=S)N(C)C)c1ccccc1 | > 200 µM | 12.9 | 
50 | N#CCCN(c1ccc(C=Nc2ccccc2)cc1)S(=O)(=O)c1ccccc1 |  |  | inactive
51 | CC(C)C(=O)N[C@@H](C)C(=O)N(Cc1ccc2ccccc2c1)N=O |  |  | inactive
52 | CNS(=O)(=O)c1c(N)ncn1C | > 1100 µM | > 1100 | 
53 | COc1ccc(N(C)CN(C)c2nc(N(C)C)nc(N(C)C)n2)cc1 | > 200 µM | 36.3 | 
54 | CCOC(=O)CCC(NC(=O)c1ccc(Nc2cnc3ccc(C(F)(F)F)cc3n2)cc1)C(=O)OCC (centres undefined) | > 200 µM | 18.6 | 
55 | COc1cc(CC2COC(=O)[C@@H]2Cc2ccc(O)c(OC)c2)ccc1O (some centres undefined) | > 200 µM | 95.5 | 
56 | O=c1cc(-c2ccccc2)oc2c1ccc1[nH]c3ccccc3c(=O)c12 | > 200 µM | > 200 | 
57 | C[C@H]1CC(=O)C2=CCCC3(SCCCS3)[C@@H]2[C@H]1CO |  |  | inactive
58 | CCCCCCCSCc1nc2ccccc2c(C)[n+]1[O-] | > 66.1 µM | 50.1 | 
59 | CC(=O)OC1C=C(C=O)C(O)(C=O)C2(C)CCCC(C)(C)C12 (centres undefined) | > 200 µM | 8.13 | 
60 | O=C1C=CC2CCC1C2 (centres undefined) |  |  | inactive
61 | CCOC(=O)c1ccc(N=[N+]([O-])c2ccc(C(=O)OCC)cc2)cc1 | > 100 µM | > 100 | 
62 | CCOC(=O)C12CCC(=O)C=C1[C@@H](C)C(=O)CC2 (some centres undefined) | > 1000 µM | 363 | 
63 | Clc1ccc(OCc2nnc(CCCCCCCCc3nnc(COc4ccc(Cl)cc4)n3Nc3ccccc3)n2Nc2ccccc2)cc1 |  |  | inactive

Row | Structure (SMILES) | EC50 | IC50 [µM] | outcome
64 | O=[As](O)(O)c1ccc(Nc2nc(Cl)nc(Cl)n2)cc1 | > 200 µM | > 200 | 
65 | Cc1cn(CCOCCOC(=O)NC(CCCN=C(N)N)C(=O)O)c(=O)[nH]c1=O (centres undefined) | > 200 µM | > 200 | 
66 | O=C1CC23CCCCCCCCCCC2(C1)CC(=O)C3 (centres undefined) |  |  | inactive
67 | CSc1cc(-c2ccccn2)nc(-c2ccccn2)c1.CSc1cc(-c2ccccn2)nc(-c2ccccn2)c1.[Co+2].[O-][Cl+3]([O-])([O-])[O-] | > 200 µM | 0.12 | 
68 | Clc1ccc(-c2cc3nc4ccccc4nc3o2)cc1 | > 100 µM | > 100 | 
69 | O=S(=O)(O)SCCCNCCCNCCCSS(=O)(=O)O | > 200 µM | 13.8 | 
70 | COP(=O)(OC)C(N)CCSC (centres undefined) | > 200 µM | > 200 | 
71 | CC(C)CCCC(C)[C@H]1CC[C@H]2[C@@H]3CC[C@H]4C[C@@H](CCC=C(c5cc(Cl)c(OCc6ccc([N+](=O)[O-])cc6)c(C(=O)O)c5)c5cc(Cl)c(OCc6ccc([N+](=O)[O-])cc6)c(C(=O)O)c5)CC[C@]4(C)[C@H]3CC[C@]12C (some centres undefined) | > 100 µM | > 100 | 
72 | O=C(CCc1cc(-c2ccccc2)nc(=S)[nH]1)Nc1ccccc1[N+](=O)[O-] | > 661 µM | > 661 | 
73 | O=C1c2c(O)cccc2C(C2OC(CO)C(O)C(O)C2O)c2cc(CO)cc(O)c21 (centres undefined) | > 603 µM | 389 | 
74 | CCOC(=O)NC(=O)c1c[nH]c(=O)[nH]c1=O | > 1100 µM | > 1100 | 
75 | c1ccc([P+](c2ccccc2)(c2ccccc2)c2ccc([P+](c3ccccc3)(c3ccccc3)c3ccccc3)c3ccccc23)cc1 | > 200 µM | 110 | 
76 | CCOC(=O)[C@@]12C(C)=CC(=O)O[C@]1(C)C1C(=O)NC(=O)C12 (some centres undefined) | > 851 µM | > 851 | 
77 | Cc1nc(C)c(C(=O)NNC(=O)C[N+](C)(C)C)cc1C(=O)NNC(=O)C[N+](C)(C)C | > 200 µM | > 200 | 
78 | O=C1/C(=N\O)C2CCC1C2 (centres undefined) | > 363 µM | > 363 | 
79 | COC(=O)c1ccccc1C1CN=NC12Cc1cc(C)c(C)cc1C2=O (centres undefined) | > 138 µM | > 138 | 
80 | S=C(S)N1CCCCC1 | > 200 µM |  | 
81 | COc1ccccc1NC(=O)C1=C(C)NC(C)=C(C(=O)Nc2ccccc2OC)C1c1ccccc1F |  |  | inactive
82 | O=C(O)c1cc(=O)[nH]c(O)c1N=Nc1ccc(/C=C/c2ccc(N=Nc3c(C(=O)O)cc(=O)[nH]c3O)cc2S(=O)(=O)O)c(S(=O)(=O)O)c1 | > 200 µM | 102 | 

Source: PubChem BioAssay AID179 (DTP/NCI, 2004)
